Assay results taken from publication PMC10856415, “Lactoferricin B Combined with Antibiotics Exhibits Leukemic Selectivity and Antimicrobial Activity” (Molecules, 2024).
Square brackets hold non-standard residues; d marks the D form. Ends that are not written are not given here. Peptide text beside a SMILES is read from it. * marks the point of attachment. X1 = N[C@@H](CS*)C(=O)N1CCN(c2cc3c(cc2F)c(=O)c(C(=O)O)cn3C2CC2)CC1; X2 = O=C(Cn1cc(CC(O)(Cn2cncn2)c2ccc(F)cc2F)nn1)*; Nle = CCCC[C@H](N)C(=O)O

What was measured:
[1] = system: S. aureus; assay: Switch of S. aureus asymmetric phosphatidylserine location (Annexin V / 7AAD); type: cell-based, Staphylococcus aureus; settings: MIC concentrations, first hour to 6 h
Procedure: Bacterial cultures with an […], as utilized in bacteriostatic experiments (Ptaszyńska et al., 2019 [16, 48]), were plated on Petri dishes. Compounds were added at the MIC concentration to the test sample, while no compound was added to the negative control. After an appropriate incubation period (45 min, […]), samples were collected and promptly washed with PBS. The pellet was then suspended in 100 μL of annexin binding buffer (BioSource International, Camarillo, CA, USA), which included 0.25 μL of 7-AAD (7-aminoactinomycin D, 1 mg/mL, Sigma) and 1 μL of Annexin–FITC (Thermo Fisher, Waltham, MA, USA). Following the addition of 400 μL of annexin binding buffer, the samples were left in the dark for 15 min. Subsequently, the samples were placed on ice and immediately read by the Guava EasyCyte (Merck-Millipore, Burlington, MA, USA). Flow results were analyzed with the free online software https://floreada.io/ (accessed on 30 November 2023; the last update was carried out in June 2023).

[2] = system: HL60; assay: Mitochondrial potential, DiOC6(3) flow cytometry in HL60; type: cell-based, human; settings: HL60 stained with DIOC6(3)
Procedure: HL60 was incubated with 100 nM 3,3′-dihexyloxacarbocyanine iodide (DiOC6(3)) (Cat. D273, Thermo Fisher Scientific). Cells were stained under culture conditions for 15 min, washed with prewarmed PBS, and examined by Guava EasyCyte flow cytometer (Merck-Millipore, USA). The results of flow cytometry were analyzed with Flowing Software 2.5.1 (Turku Bioscience, Finland).

[3] = system: HL60; settings: HL60, CM-H2DCFDA, compound at 2-fold IC90
Procedure: (§7) Cell lines were cultured as mentioned above and seeded in Petri dishes (Falcon, Cary, NC, USA) in the amount of 25 × 10^3 per Φ35 dish. HEK293 cells were allowed to attach overnight. ROS generation potential was tested for selected compounds after 0.25, 0.5, 1, 3, 6, and 24 h of incubation. The CM-H2DCFDA molecular probe (Thermo Fisher Scientific, Waltham, MA, USA) at a final concentration of 1 µM was added 15 min before the analysis. After staining, HEK293 cells were trypsinized, harvested, and suspended in fresh media. The 7AAD (Cat. A9400, Sigma Aldrich) was added just before analysis. Analyses were carried out with a Guava EasyCyte flow cytometer (Merck-Millipore, USA). Flow cytometry data were processed with Flowing Software 2.5.1 (Turku Bioscience, Turku, Finland).

[4] = system: HEK293; settings: HEK293, CM-H2DCFDA, compound at 2-fold IC90
Procedure: as §7

[5] = system: Candida krusei DSM 6128; settings: C. krusei, relative to IC50 of HL60
[6] = system: A549; assay: Cell proliferation (EC50, selectivity index) on A549; type: cell-based, human; settings: normalized to EC50
Procedure: (§1) To evaluate their effect on leukemia, cancer, and non-cancer cells, the Malignancy Selectivity Index was calculated as MSI = EC50 (non-cancerous)/EC50 (leukemic or cancerous) or EC50 (leukemic or cancerous)/EC50 (leukemic or cancerous).
(§2) Supplementary Table S1. […] 4. […]
(§3) of incubation; The initial cellular density for HL60 was 5,000 cells, and for HEK293, it was 1,500 cells […]
(§4) Supplementary Table S2. […] The conversion from IC50 to EC50 was performed following the method outlined in [62]; For IC50 values, please refer to Supplementary […]
(§5) For MIC and IC50 data, please also refer to Ptaszyńska et al., 2019. Abbreviations: S. e. - Staphylococcus epidermidis ATCC 12228; B. s. - Bacillus subtilis ATCC 6633; S. a. - Staphylococcus aureus ATCC 25923; P. a - Pseudomonas aeruginosa ATCC 27853; B. c - Bacillus cereus PCM 2003; C. k. - Candida krusei DSM 6128; C. p. - Candida parapsilosis DSM 5784; C. a. - Candida albicans ATCC 10231; C. g. - Candida glabrata DSM 11226; C. t. - Candida […]

[7] = system: HEK293; assay: MTT drug sensitivity assay on HEK293; type: cell-based, human; settings: normalized to EC50
Procedure: (§6) As mentioned in [61], we followed detailed procedures, including the composition of media and growth conditions, for the application of conjugate 4 on both HL60 and HEK293 in the MTT drug sensitivity assay. The initial cellular density for cultures seeded in a 96-well plate was 5000 cells/well for HL60 and 1500 cells/well for HEK293.
as §2, §3, §4, §5

[8] = system: BT20; assay: Cell proliferation (EC50, selectivity index) on BT20; type: cell-based, human; settings: normalized to EC50
Procedure: as §1, §2, §3, §4, §5

[9] = system: HL60; assay: MTT drug sensitivity assay on HL60; type: cell-based, human; settings: normalized to EC50
Procedure: as §6, §2, §3, §4, §5

For CCCC[C@H](NC(=O)[C@H](CCCNC(=N)N)NC(=O)[C@H](Cc1c[nH]c2ccccc12)NC(=O)[C@H](CCC(N)=O)NC(=O)[C@H](Cc1c[nH]c2ccccc12)NC(=O)[C@H](CCCNC(=N)N)NC(=O)[C@H](CCCNC(=N)N)NC(=O)[C@H](CSSC[C@H](N)C(=O)N1CCN(c2cc3c(cc2F)c(=O)c(C(=O)O)cn3C2CC2)CC1)NC(=O)[C@H](CCCCN)NC(=O)[C@@H](N)Cc1ccccc1)C(N)=O [conjugate 3] (H-FKC(X1)RRWQWR[Nle]-NH2; N-terminus assumed), the “Reduction in number of events (7AAD vs. Annexin V) compared to LfcinB” value [1] was “more pronounced” and the “Impact on mitochondrial potential” value [2] was “minimal impact”.
With CSCC[C@H](NC(=O)[C@H](CCCNC(=N)N)NC(=O)[C@H](Cc1c[nH]c2ccccc12)NC(=O)[C@H](CCC(N)=O)NC(=O)[C@H](Cc1c[nH]c2ccccc12)NC(=O)[C@H](CCCNC(=N)N)NC(=O)[C@H](CCCNC(=N)N)NC(=O)[C@H](CS)NC(=O)[C@H](CCCCN)NC(=O)[C@H](Cc1ccccc1)NC(=O)Cn1cc(CC(O)(Cn2cncn2)c2ccc(F)cc2F)nn1)C(N)=O (stereo partly shown) [conjugate 4] (X2-FKCRRWQWRM-NH2; N-terminus assumed) the “Levels of cellular ROS” value [3] was “negligible” and the “Levels of cellular ROS” value [4] was “negligible”.
“conjugate 1: covalently bonded LfcinB and LVX (FKCRRWQWRMKKLGAPSITCVRRAF; ends and bridges not checked; also: covalently bonded to levofloxacin, site not given here; UniProt P24627 36-60, looked up)” was tested, and the “FSI (Fungistatic Selectivity Index)” value [5] was 2.9, the “Malignancy Selectivity Index, A549 section, BT20 column” value ([6]; BT20 vs A549) was 0.3 and the “Malignancy Selectivity Index, A549 section, HEK293 column” value ([6]; HEK293 vs A549) was 4.4. For the same compound, the “Malignancy Selectivity Index, A549 section, HL-60 column” value ([6]; HL-60 vs A549) was 0.1, the “Malignancy Selectivity Index, HEK293 section, A549 column” value ([7]; A549 vs HEK293) was 0.2 and the “Malignancy Selectivity Index, HEK293 section, BT20 column” value ([7]; BT20 vs HEK293) was 0.1. The “Malignancy Selectivity Index, BT20 section, A549 column” value ([8]; A549 vs BT20) was 2.9, the “Malignancy Selectivity Index, BT20 section, HEK293 column” value ([8]; HEK293 vs BT20) was 13.1 and the “Malignancy Selectivity Index, BT20 section, HL-60 column” value ([8]; HL-60 vs BT20) was 0.3. The “Malignancy Selectivity Index, HL60 section, A549 column” value ([9]; A549 vs HL60) was 8.9, the “Malignancy Selectivity Index, HL60 section, BT20 column” value ([9]; BT20 vs HL60) was 3.0 and the “Malignancy Selectivity Index, HL60 section, HEK293 column” value ([9]; HEK293 vs HL60) was 39.4.
